We go through 2 molecules from article PMC9007940, “Oscillatory calcium release and sustained store-operated oscillatory calcium signaling prevents differentiation of human oligodendrocyte progenitor cells” (Scientific Reports, 2022).

As usually defined, the EC50 is the concentration that produces a half-maximal response.

Structures are written as SMILES.

Assay [1] concerns the target T1, metabotropic type 5 glutamate receptor (mGluR5) (Homo sapiens, UniProt P41594).
T1 construct: gene GRM5
Briefly: GCaMP6s calcium imaging dose-response (AUC) in primary human OPCs, endogenous receptor. Format: cell-based.

The subject of assay [2] is T2, muscarinic acetylcholine receptor M3 (M1/3R).
T2 construct: gene CHRM3
Briefly: GCaMP6s calcium imaging dose-response (AUC) in primary human OPCs, endogenous M1/M3 receptors. The class given is cell-based.

T1 sequence (P41594 21-1212): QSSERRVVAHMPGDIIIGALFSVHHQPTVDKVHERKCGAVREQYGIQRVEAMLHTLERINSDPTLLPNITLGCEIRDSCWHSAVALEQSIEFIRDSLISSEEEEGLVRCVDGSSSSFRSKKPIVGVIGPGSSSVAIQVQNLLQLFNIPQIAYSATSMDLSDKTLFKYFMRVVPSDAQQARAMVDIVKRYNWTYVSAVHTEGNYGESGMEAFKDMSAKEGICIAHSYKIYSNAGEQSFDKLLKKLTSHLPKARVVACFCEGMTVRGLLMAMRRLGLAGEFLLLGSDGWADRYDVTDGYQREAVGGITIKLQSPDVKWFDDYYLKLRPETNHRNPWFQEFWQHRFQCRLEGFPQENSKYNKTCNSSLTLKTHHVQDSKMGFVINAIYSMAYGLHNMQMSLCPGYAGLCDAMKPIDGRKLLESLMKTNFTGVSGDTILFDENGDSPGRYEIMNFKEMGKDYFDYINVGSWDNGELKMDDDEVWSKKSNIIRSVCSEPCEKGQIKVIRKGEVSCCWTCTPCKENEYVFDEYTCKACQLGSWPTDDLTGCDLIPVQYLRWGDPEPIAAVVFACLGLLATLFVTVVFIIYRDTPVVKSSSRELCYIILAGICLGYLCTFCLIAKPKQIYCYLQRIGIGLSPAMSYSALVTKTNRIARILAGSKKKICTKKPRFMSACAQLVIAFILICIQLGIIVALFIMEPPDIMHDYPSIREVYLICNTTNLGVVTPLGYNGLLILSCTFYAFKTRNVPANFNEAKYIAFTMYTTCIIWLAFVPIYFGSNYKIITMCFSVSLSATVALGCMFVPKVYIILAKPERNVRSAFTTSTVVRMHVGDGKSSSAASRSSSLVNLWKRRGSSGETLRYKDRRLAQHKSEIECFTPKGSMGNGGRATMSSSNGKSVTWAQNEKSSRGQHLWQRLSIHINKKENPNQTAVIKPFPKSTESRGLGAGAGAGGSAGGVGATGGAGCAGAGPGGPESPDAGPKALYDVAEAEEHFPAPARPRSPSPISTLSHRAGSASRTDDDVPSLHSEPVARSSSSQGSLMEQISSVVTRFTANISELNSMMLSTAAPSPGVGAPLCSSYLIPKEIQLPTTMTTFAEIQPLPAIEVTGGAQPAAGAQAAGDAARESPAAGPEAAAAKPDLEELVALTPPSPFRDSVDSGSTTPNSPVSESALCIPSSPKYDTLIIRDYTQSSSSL

In the case of `NC(C(=O)O)c1cc(O)ccc1Cl` (centres unmarked) [CHPG], the concentration for a half-maximal effect (EC50) in assay [1] worked out at 1.3 mM.

As to `C[N+](C)(C)CC#CCN1CCCC1=O` [Oxo-M], the EC50 in assay [2] was 2200 nM.
